The text below walks through data of ChEMBL document CHEMBL3046002, “Synthesis and antimicrobial activity of coumarin pyrazole pyrimidine 2,4,6(1H,3H,5H)triones and thioxopyrimidine4,6(1H,5H)diones” (2013).

Molecules are shown by their SMILES. In brackets after ≈: the same amount, converted by molar mass. Activity calls are given as the source filed them.

The test system of one test is Pseudomonas aeruginosa. As to the kind of experiment: Antimicrobial activity against Pseudomonas aeruginosa assessed as growth inhibition after 24 hr by broth dilution method. In kind it is functional. A general note: Dilution methods test growth across graded concentrations, often in twofold steps.
The test system of a further test is Escherichia coli. The test can be described thus: Antimicrobial activity against Escherichia coli assessed as growth inhibition after 24 hr by broth dilution method. In kind it is functional.
Another test concerns Staphylococcus aureus. As to the kind of experiment: Antimicrobial activity against Staphylococcus aureus assessed as growth inhibition after 24 hr by broth dilution method. In kind it is functional.
In a further test the test system is Bacillus subtilis. As to the kind of experiment: Antimicrobial activity against Bacillus subtilis assessed as growth inhibition after 24 hr by broth dilution method. In kind it is functional.
In test [1] the test system is Aspergillus niger. As to the kind of experiment: Antimicrobial activity against Aspergillus niger assessed as growth inhibition zone after 48 hr by agar cup bioassay. In kind it is functional, organism-based.
For test [2], the system named is Staphylococcus epidermidis. As to the kind of experiment: Antimicrobial activity against Staphylococcus epidermidis assessed as growth inhibition after 24 hr by broth dilution method. In kind it is functional.
Another test has as its system Klebsiella pneumoniae. As to the kind of experiment: Antimicrobial activity against Klebsiella pneumoniae assessed as growth inhibition after 24 hr by broth dilution method. In kind it is functional.
The subject of test [3] is Aspergillus niger. The test can be described thus: Antimicrobial activity against Aspergillus niger assessed as diameter of growth inhibition zone at 30 ug/ml after 48 hr by agar cup bioassay. In kind it is functional. The following applies: read-out: DIZ.
Test [4] concerns Aspergillus niger. As to the kind of experiment: Antimicrobial activity against Aspergillus niger assessed as diameter of growth inhibition zone at 150 ug/ml after 48 hr by agar cup bioassay. In kind it is functional. The following applies: read-out: DIZ.
In test [5] the test system is Aspergillus niger. As to the kind of experiment: Antimicrobial activity against Aspergillus niger assessed as diameter of growth inhibition zone at 100 ug/ml after 48 hr by agar cup bioassay. In kind it is functional. The following applies: read-out: DIZ.

`O=C1NC(=S)NC(=O)C1=Cc1cn(-c2ccccc2)nc1-c1cc2cc(Br)ccc2oc1=O`: the MIC came to 300 µg/mL (≈ 575 µM) in the test with Pseudomonas aeruginosa; 300 µg/mL (≈ 575 µM) in the test on Escherichia coli; 600 µg/mL (≈ 1150 µM) in the test on Staphylococcus aureus; 600 µg/mL (≈ 1150 µM) in the test with Bacillus subtilis; 300 µg/mL (≈ 575 µM) in test [2]; 150 µg/mL (≈ 288 µM) with Klebsiella pneumoniae. Besides, the “growth inhibition (GI)” value in the test with Aspergillus niger [1] was “inactive”.
`O=C1NC(=O)C(=Cc2cn(-c3ccccc3)nc2-c2cc3cc4ccccc4cc3oc2=O)C(=O)N1`: the minimal inhibitory concentration (MIC) in the test with Pseudomonas aeruginosa was 150 µg/mL (≈ 315 µM); in the test on Escherichia coli it was 300 µg/mL (≈ 630 µM); in the test with Staphylococcus aureus, 300 µg/mL (≈ 630 µM); in the test on Bacillus subtilis it was 150 µg/mL (≈ 315 µM); in test [2] it was 300 µg/mL (≈ 630 µM); in the test with Klebsiella pneumoniae, 300 µg/mL (≈ 630 µM). Besides, the “growth inhibition (GI)” value in the test with Aspergillus niger [1] is “inactive”.
As for `O=C1NC(=S)NC(=O)C1=Cc1cn(-c2ccccc2)nc1-c1cc2cc(Cl)ccc2oc1=O`, the minimum inhibitory concentration (MIC) in the test on Pseudomonas aeruginosa worked out at 150 µg/mL (≈ 315 µM); with Escherichia coli it was 300 µg/mL (≈ 629 µM); in the test on Staphylococcus aureus, 300 µg/mL (≈ 629 µM); in the test with Bacillus subtilis it was 150 µg/mL (≈ 315 µM); in [2], 600 µg/mL (≈ 1260 µM); in the test on Klebsiella pneumoniae, 150 µg/mL (≈ 315 µM). Also, in the test on Aspergillus niger [1], the “growth inhibition (GI)” value is “inactive”.
Regarding `O=C1NC(=S)NC(=O)C1=Cc1cn(-c2ccccc2)nc1-c1cc2cc(Br)c(Br)cc2oc1=O`, the minimal inhibitory concentration (MIC) was found to be 150 µg/mL (≈ 250 µM) with Pseudomonas aeruginosa; 150 µg/mL (≈ 250 µM) with Escherichia coli; 150 µg/mL (≈ 250 µM) in the test with Staphylococcus aureus; 150 µg/mL (≈ 250 µM) in the test on Bacillus subtilis; 300 µg/mL (≈ 500 µM) in test [2]; 150 µg/mL (≈ 250 µM) in the test on Klebsiella pneumoniae. Besides, in the test on Aspergillus niger [1], the “growth inhibition (GI)” value is “inactive”.
As to `OC(Cn1cncn1)(Cn1cncn1)c1ccc(F)cc1F` [FLUCONAZOLE], the zone of inhibition at 30 µg/mL in the test with Aspergillus niger [3] came to 30 mm.
As for `O=C1NC(=O)C(=Cc2cn(-c3ccccc3)nc2-c2cc3cc(Cl)c(Cl)cc3oc2=O)C(=O)N1`, the MIC came out at 150 µg/mL (≈ 303 µM) in the test with Pseudomonas aeruginosa; 300 µg/mL (≈ 606 µM) in the test on Escherichia coli; 300 µg/mL (≈ 606 µM) in the test on Staphylococcus aureus; 300 µg/mL (≈ 606 µM) in the test with Bacillus subtilis; 300 µg/mL (≈ 606 µM) in test [2]; 150 µg/mL (≈ 303 µM) in the test on Klebsiella pneumoniae. The “growth inhibition (GI)” value in the test on Aspergillus niger [1] is “inactive”.
Regarding `O=C1NC(=S)NC(=O)C1=Cc1cn(-c2ccccc2)nc1-c1cc2ccccc2oc1=O`, the MIC worked out at 300 µg/mL (≈ 678 µM) in the test with Pseudomonas aeruginosa; 600 µg/mL (≈ 1360 µM) in the test on Escherichia coli; 150 µg/mL (≈ 339 µM) in the test on Staphylococcus aureus; 300 µg/mL (≈ 678 µM) in the test on Bacillus subtilis; 150 µg/mL (≈ 339 µM) in test [2]; 150 µg/mL (≈ 339 µM) in the test with Klebsiella pneumoniae. Moreover, the “growth inhibition (GI)” value with Aspergillus niger [1] was “inactive”.
`O=C1NC(=O)C(=Cc2cn(-c3ccccc3)nc2-c2cc3cc(Cl)ccc3oc2=O)C(=O)N1`: the MIC (in the test with Pseudomonas aeruginosa; in the test on Escherichia coli; in the test with Staphylococcus aureus; in the test with Bacillus subtilis; in test [2]; in the test on Klebsiella pneumoniae) was 150 µg/mL (≈ 325 µM) in each case. Also, the “growth inhibition (GI)” value in the test on Aspergillus niger [1] was “inactive”.
Regarding `O=C1NC(=O)C(=Cc2cn(-c3ccccc3)nc2-c2cc3cc(Br)ccc3oc2=O)C(=O)N1`, the MIC in the test on Pseudomonas aeruginosa stood at 600 µg/mL (≈ 1190 µM); with Escherichia coli, 600 µg/mL (≈ 1190 µM); with Staphylococcus aureus, 150 µg/mL (≈ 297 µM); in the test on Bacillus subtilis, 150 µg/mL (≈ 297 µM); in test [2], 150 µg/mL (≈ 297 µM); in the test with Klebsiella pneumoniae it was 150 µg/mL (≈ 297 µM). Further, in the test with Aspergillus niger [4], the zone of inhibition at 150 µg/mL was 20 mm. Moreover, the zone of inhibition at 100 µg/mL in the test with Aspergillus niger [5] is 14 mm.
For `O=C1NC(=O)C(=Cc2cn(-c3ccccc3)nc2-c2cc3ccccc3oc2=O)C(=O)N1`, the minimum inhibitory concentration (MIC) with Pseudomonas aeruginosa came out at 150 µg/mL (≈ 352 µM); with Escherichia coli, 300 µg/mL (≈ 704 µM); in the test on Staphylococcus aureus it was 300 µg/mL (≈ 704 µM); in the test with Bacillus subtilis, 300 µg/mL (≈ 704 µM); in test [2], 300 µg/mL (≈ 704 µM); in the test on Klebsiella pneumoniae, 150 µg/mL (≈ 352 µM). Further, the “growth inhibition (GI)” value with Aspergillus niger [1] is “inactive”.
Take `O=C(O)c1cn(C2CC2)c2cc(N3CCNCC3)c(F)cc2c1=O` [CIPROFLOXACIN]: the minimum inhibitory concentration (MIC) with Escherichia coli was 20 µg/mL (≈ 60.4 µM); in the test on Bacillus subtilis, 24 µg/mL (≈ 72.4 µM); in test [2], 22 µg/mL (≈ 66.4 µM); in the test on Klebsiella pneumoniae, 25 µg/mL (≈ 75.4 µM).
On to `O=C1NC(=O)C(=Cc2cn(-c3ccccc3)nc2-c2cc3cc(Br)c(Br)cc3oc2=O)C(=O)N1`, for which the minimum inhibitory concentration (MIC) was found to be 150 µg/mL (≈ 257 µM) with Pseudomonas aeruginosa; 150 µg/mL (≈ 257 µM) in the test on Escherichia coli; 150 µg/mL (≈ 257 µM) in the test on Staphylococcus aureus; 150 µg/mL (≈ 257 µM) with Bacillus subtilis; 150 µg/mL (≈ 257 µM) in [2]; 300 µg/mL (≈ 514 µM) in the test with Klebsiella pneumoniae. In addition, the zone of inhibition at 150 µg/mL in the test on Aspergillus niger [4] worked out at 10 mm. The zone of inhibition at 100 µg/mL with Aspergillus niger [5] amounted to 7 mm.
Regarding `O=C1NC(=S)NC(=O)C1=Cc1cn(-c2ccccc2)nc1-c1cc2cc(Cl)c(Cl)cc2oc1=O`, the MIC with Pseudomonas aeruginosa is 300 µg/mL (≈ 587 µM); in the test with Escherichia coli, 600 µg/mL (≈ 1170 µM); in the test on Staphylococcus aureus, 150 µg/mL (≈ 293 µM); in the test with Bacillus subtilis it was 300 µg/mL (≈ 587 µM); in test [2], 300 µg/mL (≈ 587 µM); in the test on Klebsiella pneumoniae, 150 µg/mL (≈ 293 µM). For the same compound, the “growth inhibition (GI)” value in the test on Aspergillus niger [1] was “inactive”.
In the case of `O=C1NC(=S)NC(=O)C1=Cc1cn(-c2ccccc2)nc1-c1cc2cc3ccccc3cc2oc1=O`, the MIC turned out to be 150 µg/mL (≈ 305 µM) in the test on Pseudomonas aeruginosa; 600 µg/mL (≈ 1220 µM) in the test on Escherichia coli; 150 µg/mL (≈ 305 µM) with Staphylococcus aureus; 300 µg/mL (≈ 609 µM) in the test on Bacillus subtilis; 300 µg/mL (≈ 609 µM) in [2]; 150 µg/mL (≈ 305 µM) in the test with Klebsiella pneumoniae. In addition, in the test on Aspergillus niger [1], the “growth inhibition (GI)” value was “inactive”.

By MIC is commonly meant the smallest concentration in the dilution series that meets the test's criterion for growth inhibition.
